Experimental data: patent publication US20260256923A1, “NEW RECRUITMENT ELEMENT OF UBIQUITIN LIGASE AND USE THEREOF” (SHENZHEN LINGGENE BIOTECH CO., LTD., priority 2023, published 2026)

Experiments:
[1] = test system: HeLa cervical cancer cells; assay: Binding of Cy5-labeled oligonucleotide to HeLa cells, flow cytometer; format: cell-based; settings: 500 nM Cy5-labeled, 1.5 h
Description: When AS1411 was selected as the GRO, the model analysis for AS1411 as the novel recruitment element of MDM2 and a PROTAC constructed by using AS1411 as the novel recruitment element of MDM2 was specifically as follows: Since NCL is highly expressed in tumor cells and specifically distributed on the surface of tumor cells, the binding ability of AS1411 to HeLa cervical cancer cells was examined. HeLa cells were incubated with 500 nM CRO (cytosine-rich oligonucleotide, negative control) and AS1411 labeled by Cy5 for 1.5 h. […] AS1411 is set forth in SEQ ID NO: 1, and the sequence of the CRO is set forth in SEQ ID NO: 13.

[2] = test system: MCF 10A human normal mammary epithelial cells; assay: Toxicity to normal cells, cell apoptosis proportion by flow cytometer; format: cell-based; settings: 0-5000 nM, 4 days, medium renewed every day
Description: The toxicity of AS1411 to normal cells was compared with that of the small molecule ligand nutlin-3a of MDM2 to normal cells. AS1411 or nutlin-3a at different concentrations (0 nM, 500 nM, 1000 nM, and 5000 nM) was incubated with MCF 10A human normal mammary epithelial cells for 4 days, and the medium containing the respective concentrations of AS1411 or nutlin-3a was renewed every day. The cell apoptosis proportion was detected using a flow cytometer.

[3] = phase I and phase II clinical trials; cited from earlier work
STAT3 = STAT3 (Homo sapiens, UniProt P40763); assay: STAT3 protein degradation in HeLa cells, western blot; format: cell-based; parameters: endogenous in cells; host or cells: HeLa; settings: 500 nM, 6 h
Description: HeLa cells were incubated with 500 nM said first PROTAC product 1411-S3-1 or second PROTAC product 1411-S3-2, and corresponding cell samples were collected at time gradients of 0 h, 2 h, 6 h, 12 h, 18 h, and 24 h for protein extraction and subsequent western blot assay.
HeLa cells were incubated with the first PROTAC product 1411-S3-1 or the second PROTAC product 1411-S3-2 at concentrations of 0 nM, 100 nM, 200 nM, 500 nM, and 1000 nM. After 6 h, cell samples were collected for protein extraction and subsequent western blot assay. […] The half-maximal degradation concentrations (DC50) of the first PROTAC product 1411-S3-1 and the second PROTAC product 1411-S3-2 against STAT3 at the protein level were 262.5 nM and 136.3 nM, respectively, as shown in FIG. 19.
HeLa cells were incubated with 500 nM double-stranded transcription factor decoy oligonucleotide S3, AS1411, the first PROTAC product 1411-S3-1, the second PROTAC product 1411-S3-2, or AS1411+double-stranded transcription factor decoy oligonucleotide S3. After 6 h, cell samples were collected for protein extraction and subsequent western blot assay.
HeLa cells were incubated with 500 nM said first PROTAC product 1411-S3-1 or second PROTAC product 1411-S3-2, and proteasome inhibitor MG132 was added. After 6 h, cell samples were collected for protein extraction and subsequent western blot assay. […]

MDM2 [4] = target: T1, MDM2 (Homo sapiens, UniProt Q00987); assay: Biotin-oligonucleotide pull-down from HeLa cell lysate, western blot (MDM2); format: binding; parameters: HeLa cervical cancer cells were lysed with an IP lysis solution; endogenous in cells; host or cells: HeLa; settings: 5′-biotin label, 0 nM-20 μM
Description: HeLa cervical cancer cells were lysed with an IP lysis solution (purchased from Thermo Scientific, Cat. No.: 87788) and then incubated with a CRO (cytosine-rich oligonucleotide, negative control, SEQ ID NO: 13), AS1411, or iSN04 labeled by biotin at the 5′ end at different concentrations (0 nM, 200 nM, 500 nM, 1 μM, 5 μM, 10 μM, and 20 μM) at 4° C. for 6h. Subsequently, streptavidin agarose gel beads (purchased from cytiva, Cat. No.: 17511301) were added, and the mixture was further incubated at 4° C. overnight. After the bound biotin-labeled CRO, AS411, or iSN04 and its captured proteins on the gel beads were washed multiple times with an IP lysis buffer (purchased from Thermo Scientific, Cat. No.: 87788), an SDS-PAGE protein loading buffer (purchased from Beyotime, Cat. No.: P0015) was added, and the mixture was heated to 100° C. and held for 10 min. After centrifugation, the supernatant was collected as a pull-down product. The pull-down product was detected by western blot assay.

MDM2 [5] = target: T1, MDM2; assay: Pull-down with biotin-labeled AS1411 in HeLa cells transfected with si-NC or si-NCL; format: cell-based; parameters: HeLa cervical cancer cells were lysed with an IP lysis solution; endogenous in cells; host or cells: HeLa; settings: 500 nM biotin-labeled, 6 h, si-NCL vs si-NC
Description: HeLa cells were transfected with negative control siRNA (si-NC, SEQ ID NO: 16) or NCL siRNA (si-NCL, SEQ ID NO: 17) and subsequently incubated with 500 nM biotin-labeled AS1411 for 6 h. After cell lysis, the supernatant was incubated with streptavidin-coated magnetic beads at 4° C. overnight. The bound AS1411 and its captured proteins on the magnetic beads were eluted with an eluent, and the pull-down products were detected by western blot assay.

T1 sequence (P19338 2-710 partner limits assumed): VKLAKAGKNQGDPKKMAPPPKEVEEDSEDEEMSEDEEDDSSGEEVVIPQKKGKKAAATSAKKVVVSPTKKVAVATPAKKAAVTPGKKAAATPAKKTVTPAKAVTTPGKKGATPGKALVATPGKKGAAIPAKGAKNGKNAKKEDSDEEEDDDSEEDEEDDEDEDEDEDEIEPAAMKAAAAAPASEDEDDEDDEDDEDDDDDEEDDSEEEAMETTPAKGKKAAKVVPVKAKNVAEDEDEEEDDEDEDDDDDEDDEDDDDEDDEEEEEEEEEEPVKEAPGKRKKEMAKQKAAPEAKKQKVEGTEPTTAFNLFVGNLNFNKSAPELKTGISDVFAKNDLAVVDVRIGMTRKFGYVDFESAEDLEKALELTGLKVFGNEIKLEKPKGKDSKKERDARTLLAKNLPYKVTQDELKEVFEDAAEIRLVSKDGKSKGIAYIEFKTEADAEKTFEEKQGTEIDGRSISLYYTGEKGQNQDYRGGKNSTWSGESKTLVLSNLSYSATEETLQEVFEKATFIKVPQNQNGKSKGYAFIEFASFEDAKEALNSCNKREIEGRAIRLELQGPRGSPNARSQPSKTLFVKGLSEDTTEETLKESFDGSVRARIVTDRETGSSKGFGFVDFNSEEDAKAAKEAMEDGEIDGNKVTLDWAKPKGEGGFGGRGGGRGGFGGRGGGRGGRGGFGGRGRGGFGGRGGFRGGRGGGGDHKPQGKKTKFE
T1 sequence (Q00987 whole entry): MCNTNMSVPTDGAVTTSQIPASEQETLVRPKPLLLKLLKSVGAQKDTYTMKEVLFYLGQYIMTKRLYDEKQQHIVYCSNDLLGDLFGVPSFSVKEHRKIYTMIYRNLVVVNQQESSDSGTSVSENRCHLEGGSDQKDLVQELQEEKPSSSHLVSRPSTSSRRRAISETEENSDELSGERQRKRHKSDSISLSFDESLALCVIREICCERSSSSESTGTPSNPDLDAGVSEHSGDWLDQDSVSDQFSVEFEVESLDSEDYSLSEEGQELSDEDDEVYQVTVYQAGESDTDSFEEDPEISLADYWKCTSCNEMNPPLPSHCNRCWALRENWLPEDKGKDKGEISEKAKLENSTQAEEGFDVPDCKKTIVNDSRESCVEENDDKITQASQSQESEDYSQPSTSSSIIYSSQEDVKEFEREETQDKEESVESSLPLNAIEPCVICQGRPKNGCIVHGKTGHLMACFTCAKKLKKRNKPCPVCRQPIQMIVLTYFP
Chain of STAT3 (P40763 whole entry): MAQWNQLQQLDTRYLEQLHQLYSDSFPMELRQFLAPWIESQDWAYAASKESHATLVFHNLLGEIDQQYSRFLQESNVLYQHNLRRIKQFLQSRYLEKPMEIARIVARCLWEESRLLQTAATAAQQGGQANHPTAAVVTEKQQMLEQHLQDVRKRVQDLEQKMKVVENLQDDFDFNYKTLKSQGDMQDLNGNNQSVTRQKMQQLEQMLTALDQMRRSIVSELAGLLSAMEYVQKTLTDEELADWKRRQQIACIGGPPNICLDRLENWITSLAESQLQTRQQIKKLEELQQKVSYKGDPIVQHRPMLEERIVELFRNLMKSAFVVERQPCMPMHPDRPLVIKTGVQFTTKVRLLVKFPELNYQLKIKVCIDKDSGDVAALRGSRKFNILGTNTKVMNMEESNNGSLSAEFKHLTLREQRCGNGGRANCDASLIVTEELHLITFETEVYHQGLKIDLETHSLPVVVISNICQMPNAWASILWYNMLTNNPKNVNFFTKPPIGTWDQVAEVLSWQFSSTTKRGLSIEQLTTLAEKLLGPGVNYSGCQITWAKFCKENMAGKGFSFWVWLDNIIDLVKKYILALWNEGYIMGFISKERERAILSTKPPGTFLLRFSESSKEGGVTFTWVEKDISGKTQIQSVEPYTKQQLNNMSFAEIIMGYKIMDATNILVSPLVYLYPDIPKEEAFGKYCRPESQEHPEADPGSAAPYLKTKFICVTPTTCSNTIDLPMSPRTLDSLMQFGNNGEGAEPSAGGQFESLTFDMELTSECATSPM

Substance: AS1411: DNA aptamer, GRO binding NCL, SEQ ID NO: 1: 5′-GGTGGTGGTGGTTGTGGTGGTGGTGG-3′
- binding ability to HeLa cells [1]: can significantly bind to HeLa cells
- toxicity to normal cells (cell apoptosis proportion) [2]: has no significant toxicity
- safety in clinical trials [3]: good safety
- protein level of STAT3 (STAT3): only the first PROTAC product 1411-S3-1 and the second PROTAC product 1411-S3-2 can reduce the protein level of transcription factor STAT3
- capture of MDM2 (MDM2 [4]): can capture NCL and MDM2 in a concentration-dependent manner
- recruitment of MDM2 when NCL is silenced (MDM2 [5]): silencing NCL can block the recruitment of MDM2 by AS1411
